Laboratory results as given in US8212016B2, “NPC1L1 orthologues” (Schering Corporation, priority 2006, dated 2012).
Like-named read-outs stand apart in the source and are kept apart here. Values belong to the compound of their own block, whether it stands above or below them.

How the values were obtained:
[1] = target: T1, mouse NPC1L1 (Mus musculus, UniProt Q6T3U4, N476K); test: Fluorescence NPC1L1 binding assay, HEK-293 cells, fluorescent compound 2 as ligand; details: for Kd: saturation binding, mouse NPC1L1; for Ki / Ki Mouse NPC1L1: Table 3, Mouse; for Ki: read-out: Ki Mouse NPC1L1
T1 construct: expressed in transfected cells
Protocol: (§1) Cell Culture and Membrane Preparation. Each plasmid pCR3.1 harboring NPC1L1 was prepared using standard molecular biology protocols. Stable cell lines expressing human, rhesus monkey, mouse, rat, hamster, canine or rabbit NPC1L1 were generated using Lipofectamine 2000 transfection reagent in HEK-293 cells according to the manufacturer's protocol. Cells were maintained in DMEM supplemented with 10% FBS, 100 U/ml pen/strep, and 500 μg/ml geneticin at 37° C., 5% CO2. All cell culture reagents were obtained from Invitrogen Life Technologies, (Carlsbad, Calif.). Cell membranes were prepared by lysing cells in 5 mM HEPES with protease inhibitors (Complete™ Protease Inhibitor Cocktail Tablets; Roche Diagnostics Corp., Indianapolis Ind.) for 15 min at 4° C. A membrane pellet was obtained by centrifuging the cell lysates at 12,000×g for 25 min. The membranes were resuspended in 5 mM HEPES with protease inhibitors and triturated with a 21G needle.
(§2) Fluorescence. Cells were plated into 384-well black/clear plates (BD Biosciences, Bedford Mass.) for binding experiments the following day. The media was aspirated. […] Media (20 μl) containing the indicated concentration of compound was then added to the wells. […] The binding reaction was allowed to proceed for 4 hours at 37° C. Subsequently the media was aspirated and the cells washed once with PBS.
In an effort to show binding to mouse NPC1L1, several related ezetimibe analogs were examined as possible alternatives to fluorescently-labeled (BODIPY) ezetimibe glucuronide (compound 1) in the binding assay. Compound 2, which is a fluorescently labeled synthetic precursor for fluorescently-labeled (BODIPY) ezetimibe glucuronide (compound 1; Burnett et al., Bioorganic and Medicinal Chemistry Letters 12:315-318 (2002)), was identified as a viable option for detection of mouse NPC1L1 binding. Compound 2 contains a methyl ester substitution for the carboxylic acid on the glucuronide portion of the molecule (compound structures shown in FIG. 4A).

[2] = target: T2, monkey NPC1L1 (Macaca mulatta, UniProt A0MJA5); test: Fluorescence NPC1L1 binding assay, HEK-293 cells, BODIPY-labeled compound 1; design: species or system rhesus monkey; details: for Ki / Ki Monkey NPC1L1: Table 3, Monkey; for Ki: read-out: Ki Monkey NPC1L1
Protocol: as §1, §2

[3] = target: T3, human NPC1L1 (Homo sapiens, UniProt Q9UHC9, T1073A); test: as above; details: for Ki / Ki Human NPC1L1: Table 3, Human; for Ki: read-out: Ki Human NPC1L1
T3 construct: expressed in transfected cells
T3 sequence (Q9UHC9 22-1332 isoform Q9UHC9-2 T1046A): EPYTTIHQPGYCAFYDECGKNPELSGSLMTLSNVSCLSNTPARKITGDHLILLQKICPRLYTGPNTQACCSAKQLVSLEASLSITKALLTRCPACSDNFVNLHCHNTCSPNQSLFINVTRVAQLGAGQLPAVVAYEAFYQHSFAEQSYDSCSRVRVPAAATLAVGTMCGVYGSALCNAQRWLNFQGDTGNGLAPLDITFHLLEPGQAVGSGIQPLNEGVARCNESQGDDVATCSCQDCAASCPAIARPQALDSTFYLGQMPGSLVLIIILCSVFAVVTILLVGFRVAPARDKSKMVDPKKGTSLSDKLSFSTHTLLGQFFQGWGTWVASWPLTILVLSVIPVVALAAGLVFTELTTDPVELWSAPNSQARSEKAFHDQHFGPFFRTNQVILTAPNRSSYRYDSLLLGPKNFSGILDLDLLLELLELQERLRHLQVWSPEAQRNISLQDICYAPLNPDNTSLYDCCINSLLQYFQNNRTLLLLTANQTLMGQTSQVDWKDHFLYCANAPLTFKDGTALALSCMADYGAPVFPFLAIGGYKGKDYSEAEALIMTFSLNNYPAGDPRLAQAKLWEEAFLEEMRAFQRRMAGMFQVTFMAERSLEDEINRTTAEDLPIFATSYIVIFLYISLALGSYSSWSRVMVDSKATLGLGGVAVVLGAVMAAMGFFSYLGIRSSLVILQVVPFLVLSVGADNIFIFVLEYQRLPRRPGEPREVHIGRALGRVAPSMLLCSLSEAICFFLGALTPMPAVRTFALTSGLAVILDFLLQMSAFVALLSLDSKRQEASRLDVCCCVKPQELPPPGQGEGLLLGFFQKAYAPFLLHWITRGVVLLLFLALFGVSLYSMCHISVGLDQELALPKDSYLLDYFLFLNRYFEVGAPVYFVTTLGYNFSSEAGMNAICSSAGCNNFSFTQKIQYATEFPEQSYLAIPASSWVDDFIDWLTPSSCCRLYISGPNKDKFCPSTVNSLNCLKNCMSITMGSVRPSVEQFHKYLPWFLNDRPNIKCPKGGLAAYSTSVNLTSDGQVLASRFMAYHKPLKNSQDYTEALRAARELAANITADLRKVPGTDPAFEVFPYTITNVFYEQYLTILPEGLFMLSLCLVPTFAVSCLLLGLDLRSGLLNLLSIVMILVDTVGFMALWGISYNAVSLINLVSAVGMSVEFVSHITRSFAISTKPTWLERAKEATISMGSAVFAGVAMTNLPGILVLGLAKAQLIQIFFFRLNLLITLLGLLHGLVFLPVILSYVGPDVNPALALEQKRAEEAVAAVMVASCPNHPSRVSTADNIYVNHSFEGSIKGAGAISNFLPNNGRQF
Protocol: as §1, §2

[4] = target: canine NPC1L1 (Canis lupus familiaris, UniProt A0MJA4); test: as above; details: for Ki / Ki Dog NPC1L1: Table 3, Dog; for Ki: read-out: Ki Dog NPC1L1
Protocol: as §1, §2

[5] = target: T4, rat NPC1L1 (Rattus norvegicus, UniProt Q6T3U3, A349V/E317P/G318E/K324N/L297S); test: as above; details: for Ki / Ki Rat NPC1L1: Table 3, Rat; for Ki: read-out: Ki Rat NPC1L1
T4 construct: expressed in transfected cells
Protocol: as §1, §2

[6] = target: rabbit NPC1L1 (Oryctolagus cuniculus, UniProt A0MJA7); test: as above; details: for Ki / Ki Rabbit NPC1L1: Table 3, Rabbit; for Ki: read-out: Ki Rabbit NPC1L1
Protocol: as §1, §2

[7] = target: hamster NPC1L1 (Mesocricetus auratus, UniProt A0MJA8); test: as above; details: for Ki / Ki Hamster NPC1L1: Table 3, Hamster; for Ki: read-out: Ki Hamster NPC1L1
Protocol: as §1, §2

[8] = target: T3, human NPC1L1; test: Radioligand binding of [3H]-glucuronidated ezetimibe (compound 4) to cell membranes
Protocol: (§3) Cell Culture and Membrane Preparation. […] Cells were maintained in DMEM supplemented with 10% FBS, 100 U/ml pen/strep, and 500 μg/ml geneticin at 37° C., 5% CO2. All cell culture reagents were obtained from Invitrogen Life Technologies, (Carlsbad, Calif.). Cell membranes were prepared by lysing cells in 5 mM HEPES with protease inhibitors (Complete™ Protease Inhibitor Cocktail Tablets; Roche Diagnostics Corp., Indianapolis Ind.) for 15 min at 4° C. A membrane pellet was obtained by centrifuging the cell lysates at 12,000×g for 25 min. […] Radioligand. […] Natl. Acad. Sci. […] Reactions were performed in binding buffer (5 mM HEPES, 5.5 mM glucose, 117 mM NaCl and 5.4 mM KCl, pH 7.4). Cell membranes (50 μg in 20 μl) were added to each well. […] Binding reactions were incubated for 2 hours at 37° C. Samples were transferred to Unifilter-96 GF/C plates (Perkin Elmer, Wellesley Mass.) and filtered using a Brandel harvester (Gaithersburg Md.). […] Liquid scintillant (50 μl; Microscint-20, Perkin Elmer, Wellesley Mass.) was added and the bound radioactivity was measured using a microplate scintillation counter.

[9] = target: T2, monkey NPC1L1; test: as above; design: species or system rhesus monkey
Protocol: as §3

[10] = test system: cholesterol; test: In vivo cholesterol lowering activity
[11] = test system: plasma and liver cholesterol; test: Percent cholesterol lowering in plasma and liver; type: in vivo; details: hamster
[12] = test system: NPC1L1 orthologs of multiple species; test: Binding to NPC1L1 orthologs of multiple species; details: NPC1L1 orthologs of the species tested
Protocol: as §1, §2

[13] = test system: ^14C-cholesterol absorption; test: Acute cholesterol absorption assay; type: in vivo; details: intraduodenal
Protocol: Acute cholesterol absorption assay. ^14C-cholesterol absorption was determined acutely in rats using conditions previously described (Van Heek et al., J. Pharmacol. Exp. Ther. 283: 157-163 (1997)). Compounds were dissolved in rat bile and delivered (1.0 ml) intraduodenally by bolus injection via an intestinal catheter, followed by 1.0 ml saline rinse (0.9%). Following a 30 min incubation, a cholesterol emulsion containing 3 mg cholesterol and 2 μCi ^14C-cholesterol (3 ml) was delivered to each rat as a bolus via intestinal catheter, followed by 1 ml saline rinse. Animals were sacrificed 90 min later and ^14C-cholesterol levels in plasma, liver, intestinal contents, and intestinal wall were determined.

Kd [1]: could not be detected | Kd ([2]; saturation binding, monkey NPC1L1, 4 h): 0.046 µM | Kd ([3]; saturation binding, human NPC1L1, 4 h): 0.061 µM | Kd ([4]; saturation binding, canine NPC1L1, 4 h): 0.052 µM | Kd ([5]; saturation binding, rat NPC1L1, 4 h): 0.058 µM | Kd ([6]; saturation binding, rabbit NPC1L1, 4 h): 0.151 µM | Kd ([7]; saturation binding, hamster NPC1L1, 4 h): 0.049 µM | Ki [8]: 2.5 µM | Ki [9]: 0.21 µM
SMILES: Cc1cc(C)n2c1C=C1C=CC(CCC(=O)NCC#Cc3ccc(N4C(=O)[C@H](CC[C@H](O)c5ccc(F)cc5)[C@H]4c4ccc(O[C@@H]5O[C@H](C(=O)O)[C@@H](O)[C@H](O)[C@H]5O)cc4)cc3)=[N+]1[B-]2(F)F [compound 1, BODIPY-labeled glucuronidated ezetimibe]

Kd ([1]; read-out: Kd): 0.118 µM | Ki [8]: 0.12 µM | Ki [9]: 0.07 µM | increase in affinity versus compound 1 ([9]; monkey NPC1L1, methyl ester for carboxylic acid): 3 fold
SMILES: COC(=O)[C@H]1O[C@@H](Oc2ccc([C@@H]3[C@@H](CC[C@H](O)c4ccc(F)cc4)C(=O)N3c3ccc(C#CCNC(=O)CCC4=[N+]5C(=Cc6c(C)cc(C)n6[B-]5(F)F)C=C4)cc3)cc2)[C@H](O)[C@@H](O)[C@@H]1O [compound 2]

Ki [1]: 7.7 µM | Ki [2]: 0.37 µM | Ki [3]: 2.15 µM | Ki [4]: 1.28 µM | Ki [5]: 0.542 µM | Ki [6]: 1.9 µM | Ki [7]: 1.2 µM
SMILES: O=C1[C@H](CC[C@H](O)c2ccc(F)cc2)[C@@H](c2ccc(O[C@@H]3O[C@H](CO)[C@@H](O[C@@H]4O[C@H](CO)[C@@H](O)[C@H](O)[C@H]4O)[C@H](O)[C@H]3O)cc2)N1c1ccc(F)cc1 [compound 5]
in vivo cholesterol lowering activity [10]: exhibiting in vivo cholesterol lowering activity | cholesterol lowering Liver [11]: 86% | cholesterol lowering Plasma [11]: 36%

Ki [1]: 16.4 µM | Ki [2]: 1.6 µM | Ki [3]: 4.59 µM | Ki [4]: 1.43 µM | Ki [5]: 1.46 µM | Ki [6]: 5 µM | Ki [7]: 2.34 µM
SMILES: O=C1[C@H](CC[C@H](O)c2ccc(F)cc2)[C@@H](c2ccc(O)cc2)N1c1ccc(I)cc1 [compound 6]
in vivo cholesterol lowering activity [10]: exhibiting in vivo cholesterol lowering activity | cholesterol lowering Liver [11]: 63% | cholesterol lowering Plasma [11]: 22%

Ki [1]: 21.6 µM | NPC1L1 binding activity [12]: decreased | Ki [4]: 2.3 µM | Ki [5]: 2.1 µM | Ki [6]: 5.6 µM | Ki [7]: 4.28 µM
SMILES: O=C(CS[C@H]1C(=O)N(c2ccc(F)cc2)[C@@H]1c1ccc(O)cc1)c1ccc(F)cc1 [compound 7]
ED50 ([13]; rat, read-out: rat ED50, inhibition of cholesterol absorption): 0.036 mg/kg | in vivo cholesterol lowering activity [10]: exhibiting in vivo cholesterol lowering activity | cholesterol lowering Liver [11]: 96% | cholesterol lowering Plasma [11]: 47%

Ki Mouse NPC1L1 [1]: In- active | Ki Monkey NPC1L1 [2]: In- active | NPC1L1 binding activity [12]: total loss | Ki Human NPC1L1 [3]: In- active | Ki Dog NPC1L1 [4]: In- active | Ki Rat NPC1L1 [5]: In- active | Ki Rabbit NPC1L1 [6]: In- active | Ki Hamster NPC1L1 [7]: In- active
SMILES: COc1ccc(N2C(=O)[C@H](CCCc3ccccc3)[C@H]2c2ccc(O[C@@H]3O[C@H](COCc4ccccc4)[C@@H](OCc4ccccc4)[C@H](OCc4ccccc4)[C@H]3OCc3ccccc3)cc2)cc1 [compound 8]
rat ED50, inhibition of cholesterol absorption [13]: In- active | in vivo cholesterol lowering activity [10]: no in vivo cholesterol lowering activity

Ki Mouse NPC1L1 [1]: In- active | Ki Monkey NPC1L1 [2]: In- active | NPC1L1 binding activity [12]: total loss | Ki Human NPC1L1 [3]: In- active | Ki Dog NPC1L1 [4]: In- active | Ki Rat NPC1L1 [5]: In- active | Ki Rabbit NPC1L1 [6]: In- active | Ki Hamster NPC1L1 [7]: In- active
SMILES: COc1ccc(N2C(=O)[C@H](CCCc3ccccc3)[C@H]2c2ccc(F)cc2)cc1 [compound 9]
rat ED50, inhibition of cholesterol absorption [13]: In- active | in vivo cholesterol lowering activity [10]: no in vivo cholesterol lowering activity | cholesterol lowering Liver [11]: In- active | cholesterol lowering Plasma [11]: In- active
